Source: patent publication US12448389B2, “BRM targeting compounds and associated methods of use” (Prelude Therapeutics Incorporated, priority 2020, dated 2025)

Tests used:
SMARCA4-HiBiT = target: T1, SMARCA4-HiBiT (Homo sapiens, UniProt P51532); test: SMARCA4 HiBiT degradation assay in HeLa cells; type: cell-based; settings: 18 hours incubation; for DC50: read-out: HeLa-HiBit-SM4 DC50; for Dmax: HeLa, read-out: HeLa-HiBit-SM4 Dmax (%)
T1 construct: SMARCA4-HiBiT knock-in Hela monoclonal cell (CS3023226); host or cells: HeLa monoclonal knock-in line (CRISPR HiBiT knock-in at the endogenous locus, heterozygous)
T1 sequence (P51532 whole entry): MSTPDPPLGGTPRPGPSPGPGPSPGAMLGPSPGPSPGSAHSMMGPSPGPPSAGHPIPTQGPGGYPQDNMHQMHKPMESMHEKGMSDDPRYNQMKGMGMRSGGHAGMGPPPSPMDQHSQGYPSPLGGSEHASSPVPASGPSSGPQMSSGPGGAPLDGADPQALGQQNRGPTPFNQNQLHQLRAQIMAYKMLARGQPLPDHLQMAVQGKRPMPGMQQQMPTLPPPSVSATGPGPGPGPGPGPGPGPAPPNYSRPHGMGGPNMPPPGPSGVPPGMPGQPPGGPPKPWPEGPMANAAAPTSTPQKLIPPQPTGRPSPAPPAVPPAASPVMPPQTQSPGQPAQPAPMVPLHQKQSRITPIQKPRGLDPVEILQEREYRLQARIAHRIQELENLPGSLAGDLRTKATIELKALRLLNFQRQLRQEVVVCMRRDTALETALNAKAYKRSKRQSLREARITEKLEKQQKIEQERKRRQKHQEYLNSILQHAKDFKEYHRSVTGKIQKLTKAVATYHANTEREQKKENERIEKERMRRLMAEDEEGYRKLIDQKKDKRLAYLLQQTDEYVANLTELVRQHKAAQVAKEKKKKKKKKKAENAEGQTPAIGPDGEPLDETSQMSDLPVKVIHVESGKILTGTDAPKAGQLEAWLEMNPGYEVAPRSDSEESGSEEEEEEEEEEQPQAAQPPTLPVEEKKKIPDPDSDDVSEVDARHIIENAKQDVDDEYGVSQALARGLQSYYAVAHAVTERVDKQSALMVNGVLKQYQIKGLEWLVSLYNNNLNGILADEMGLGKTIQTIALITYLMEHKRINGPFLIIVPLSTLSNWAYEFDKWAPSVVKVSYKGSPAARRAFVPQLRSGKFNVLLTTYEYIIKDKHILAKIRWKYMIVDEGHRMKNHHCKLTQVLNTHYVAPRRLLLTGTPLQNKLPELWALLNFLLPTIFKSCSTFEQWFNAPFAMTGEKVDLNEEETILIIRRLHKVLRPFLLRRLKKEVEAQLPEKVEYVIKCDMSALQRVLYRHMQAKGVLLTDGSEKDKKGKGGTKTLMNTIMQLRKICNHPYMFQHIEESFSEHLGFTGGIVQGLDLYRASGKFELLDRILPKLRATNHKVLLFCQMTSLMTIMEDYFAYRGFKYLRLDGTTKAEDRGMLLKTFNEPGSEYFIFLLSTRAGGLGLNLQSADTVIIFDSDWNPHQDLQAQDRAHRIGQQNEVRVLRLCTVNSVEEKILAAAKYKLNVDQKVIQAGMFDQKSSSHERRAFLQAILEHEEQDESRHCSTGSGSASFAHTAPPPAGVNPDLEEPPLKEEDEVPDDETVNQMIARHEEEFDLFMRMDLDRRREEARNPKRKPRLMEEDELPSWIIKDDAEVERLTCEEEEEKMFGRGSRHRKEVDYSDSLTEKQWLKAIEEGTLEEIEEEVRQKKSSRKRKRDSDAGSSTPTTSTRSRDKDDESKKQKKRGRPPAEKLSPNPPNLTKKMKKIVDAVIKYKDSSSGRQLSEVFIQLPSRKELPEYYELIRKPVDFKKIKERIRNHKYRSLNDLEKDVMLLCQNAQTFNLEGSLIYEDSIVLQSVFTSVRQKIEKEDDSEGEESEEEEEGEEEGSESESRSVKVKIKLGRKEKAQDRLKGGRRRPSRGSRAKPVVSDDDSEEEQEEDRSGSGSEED
Summary of the method: (§1)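 HeLa monoclonal lines with heterozygous HiBiT knock-in were seeded at 2500 cells/well in EMEM with 10% FBS and treated with compound for 18 h at 37 °C. Remaining tagged protein was measured by Nano-Glo HiBiT lytic luminescence after 30–60 min at RT, and values came from curve fitting.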

SMARCA2-HiBiT = target: T2, SMARCA2-HiBiT (Homo sapiens, UniProt P51531); test: SMARCA2 HiBiT degradation assay in HeLa cells; type: cell-based; settings: 18 hours incubation; for DC50: read-out: HeLa_HiBit-SM2 DC50; for Dmax: HeLa, read-out: HeLa-HiBit-SM2 Dmax (%)
T2 construct: SMARCA2-HiBiT knock-in Hela monoclonal cell (CS302366); host or cells: HeLa monoclonal knock-in line (CRISPR HiBiT knock-in at the endogenous locus, heterozygous)
T2 sequence (P51531 whole entry): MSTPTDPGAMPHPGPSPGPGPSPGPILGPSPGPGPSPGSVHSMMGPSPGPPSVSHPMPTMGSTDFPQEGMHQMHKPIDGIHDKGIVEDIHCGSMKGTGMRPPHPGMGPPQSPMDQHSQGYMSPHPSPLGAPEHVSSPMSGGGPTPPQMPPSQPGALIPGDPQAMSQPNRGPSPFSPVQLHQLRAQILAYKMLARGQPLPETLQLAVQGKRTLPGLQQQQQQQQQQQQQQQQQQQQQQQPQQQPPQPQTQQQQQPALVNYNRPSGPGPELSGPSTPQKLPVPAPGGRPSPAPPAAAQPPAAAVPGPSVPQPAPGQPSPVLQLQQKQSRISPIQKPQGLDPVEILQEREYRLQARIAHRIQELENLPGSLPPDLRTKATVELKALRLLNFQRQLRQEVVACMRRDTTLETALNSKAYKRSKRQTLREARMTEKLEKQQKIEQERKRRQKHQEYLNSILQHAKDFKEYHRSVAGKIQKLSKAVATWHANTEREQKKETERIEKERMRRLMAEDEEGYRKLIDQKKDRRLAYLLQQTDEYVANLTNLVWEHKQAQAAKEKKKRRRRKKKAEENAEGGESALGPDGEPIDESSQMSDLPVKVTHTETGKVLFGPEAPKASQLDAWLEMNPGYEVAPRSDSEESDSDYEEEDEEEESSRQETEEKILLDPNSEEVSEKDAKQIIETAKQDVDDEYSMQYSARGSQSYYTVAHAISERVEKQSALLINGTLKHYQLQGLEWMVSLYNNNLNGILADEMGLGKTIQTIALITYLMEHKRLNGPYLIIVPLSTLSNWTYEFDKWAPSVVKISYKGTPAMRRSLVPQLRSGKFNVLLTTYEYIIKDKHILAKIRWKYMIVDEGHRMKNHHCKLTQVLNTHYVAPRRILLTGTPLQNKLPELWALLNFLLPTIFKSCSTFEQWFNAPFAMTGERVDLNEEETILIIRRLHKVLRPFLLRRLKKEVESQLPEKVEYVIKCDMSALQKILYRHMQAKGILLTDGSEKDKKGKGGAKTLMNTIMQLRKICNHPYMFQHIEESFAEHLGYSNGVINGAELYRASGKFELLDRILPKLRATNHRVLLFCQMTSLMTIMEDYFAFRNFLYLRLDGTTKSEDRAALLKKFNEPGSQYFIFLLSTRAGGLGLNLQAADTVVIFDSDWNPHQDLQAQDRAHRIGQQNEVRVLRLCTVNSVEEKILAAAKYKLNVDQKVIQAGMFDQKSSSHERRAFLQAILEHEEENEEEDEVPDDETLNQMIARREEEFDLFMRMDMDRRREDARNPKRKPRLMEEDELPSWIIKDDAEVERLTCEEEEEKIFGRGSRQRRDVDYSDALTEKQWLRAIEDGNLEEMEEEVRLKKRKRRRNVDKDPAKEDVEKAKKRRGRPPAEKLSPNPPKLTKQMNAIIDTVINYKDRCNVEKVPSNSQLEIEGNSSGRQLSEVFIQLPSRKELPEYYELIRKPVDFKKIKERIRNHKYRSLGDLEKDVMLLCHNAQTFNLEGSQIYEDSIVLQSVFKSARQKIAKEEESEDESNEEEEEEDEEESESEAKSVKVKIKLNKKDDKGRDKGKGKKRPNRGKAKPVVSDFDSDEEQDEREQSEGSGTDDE
Summary of the method: as §1

| SMILES | HeLa-HiBit-SM4 Dmax (%) (SMARCA4-HiBiT) | DC50 (SMARCA4-HiBiT) [nM] | HeLa-HiBit-SM2 Dmax (%) (SMARCA2-HiBiT) | DC50 (SMARCA2-HiBiT) [nM] | Dmax (SMARCA4-HiBiT) [%] | Dmax (SMARCA2-HiBiT) [%] |
| --- | --- | --- | --- | --- | --- | --- |
| O=C1CCC(N2C(=O)c3ccc(N4CC[C@@H](CN5C[C@@H]6[C@H](C5)[C@H]6CN5CCN6c7cc(-c8ccccc8O)nnc7NC[C@H]6C5)[C@H](F)C4)cc3C2=O)C(=O)N1 (stereo partly drawn) [Example 201, 2-(2,6-dioxopiperidin-3-yl)-5-[(3S,4S)-3-fluoro-4-[[(1S,5R)-6-[[(10S)-4-(2-hydroxyphenyl)-1,5,6,8,12-pentazatricyclo [8.4.0.02,7]tetradeca-2(7),3,5-trien-12-yl]methyl]-3-azabicyclo[3.1.0]hexan-3-yl]methyl]piperidin-1-yl]isoindole-1,3-dione] | A (A=Dmax>85%) | < 10 | A (A=Dmax>85%) | < 10 | – | – |
| O=C1CCC(N2Cc3cc(N4CCO[C@@H](CN5C[C@@H]6[C@H](C5)[C@H]6CN5CCN6c7cc(-c8ccccc8O)nnc7NC[C@H]6C5)C4)ccc3C2=O)C(=O)N1 (stereo partly drawn) [Example 267, 3-(5-((S)-2-(((1R,5S,6R)-6-(((S)-2-(2-hydroxyphenyl)-5,6,6a,7,9,10-hexahydro-8H-pyrazino[1′,2′:4,5]pyrazino[2,3-c]pyridazin-8-yl)methyl)-3-azabicyclo[3.1.0]hexan-3-yl)methyl)morpholino)-1-oxoisoindolin-2-yl)piperidine-2,6-dione] | – | < 10 | – | < 10 | 75 to 85 | > 85 |
| CN(CCCCN1CCC(CN2CCN3c4cc(-c5ccccc5O)nnc4NC[C@H]3C2)CC1)c1ccc2c(c1)C(=O)N(C1CCC(=O)NC1=O)C2=O (stereo partly drawn) [Example 227, 2-(2,6-dioxopiperidin-3-yl)-5-((4-(4-(((S)-2-(2-hydroxyphenyl)-5,6,6a,7,9,10-hexahydro-8H-pyrazino[1′,2′:4,5]pyrazino[2,3-c]pyridazin-8-yl)methyl)piperidin-1-yl)butyl)(methyl)amino)isoindoline-1,3-dione] | – | 10 to 100 | – | < 10 | 50 to 75 | 50 to 75 |
| COC1(CN2CCN3c4cc(-c5ccccc5O)nnc4NC[C@H]3C2)CCN(CC2CCN(c3ccc4c(c3)CN(C3CCC(=O)NC3=O)C4=O)CC2)CC1 (stereo partly drawn) [Example 251, 3-(5-(4-((4-(((S)-2-(2-hydroxyphenyl)-5,6,6a,7,9,10-hexahydro-8H-pyrazino[1′,2′:4,5]pyrazino[2,3-c]pyridazin-8-yl)methyl)-4-methoxypiperidin-1-yl)methyl)piperidin-1-yl)-1-oxoisoindolin-2-yl)piperidine-2,6-dione] | – | < 10 | – | < 10 | > 85 | > 85 |
| O=C1CCC(N2C(=O)c3ccc(NCCN4CCC(N5CCN6c7cc(-c8cc(F)ccc8O)nnc7NC[C@H]6C5)CC4)cc3C2=O)C(=O)N1 (stereo partly drawn) [Example 242, 2-(2,6-dioxopiperidin-3-yl)-5-((2-(4-((S)-2-(5-fluoro-2-hydroxyphenyl)-5,6,6a,7,9,10-hexahydro-8H-pyrazino[1′,2′:4,5]pyrazino[2,3-c]pyridazin-8-yl)piperidin-1-yl)ethyl)amino)isoindoline-1,3-dione] | – | < 10 | – | < 10 | > 85 | > 85 |
| O=C1CCC(N2C(=O)c3ccc(N4CCC(CN5C6COCC5CC(CN5CCN7c8cc(-c9ccccc9O)nnc8NC[C@H]7C5)C6)CC4)cc3C2=O)C(=O)N1 (stereo partly drawn) [Example 133, 2-(2,6-dioxopiperidin-3-yl)-5-(4-((7-(((S)-2-(2-hydroxyphenyl)-5,6,6a,7,9,10-hexahydro-8H-pyrazino[1′,2′:4,5]pyrazino[2,3-c]pyridazin-8-yl)methyl)-3-oxa-9-azabicyclo[3.3.1]nonan-9-yl)methyl)piperidin-1-yl)isoindoline-1,3-dione] | – | < 10 | – | < 10 | 50 to 75 | 50 to 75 |
| O=C1CCC(N2C(=O)c3ccc(Nc4ccc(N5CCC(N6CCN7c8cc(-c9ccccc9O)nnc8NC[C@H]7C6)CC5)cc4)cc3C2=O)C(=O)N1 (stereo partly drawn) [Example 240, 2-(2,6-dioxopiperidin-3-yl)-5-((4-(4-((S)-2-(2-hydroxyphenyl)-5,6,6a,7,9,10-hexahydro-8H-pyrazino[1′,2′:4,5]pyrazino[2,3-c]pyridazin-8-yl)piperidin-1-yl)phenyl)amino) isoindoline-1,3-dione] | – | < 10 | – | < 10 | 75 to 85 | 75 to 85 |
| CC12CNc3nnc(-c4ccccc4O)cc3N1CCN(C1CCN(CCCc3ccc4c(c3)c3cccnc3n4C3CCC(=O)NC3=O)CC1)C2 (stereo not drawn) [Example 25, 3-(6-(3-(4-(2-(2-hydroxyphenyl)-6a-methyl-5,6,6a,7,9,10-hexahydro-8H-pyrazino[1′,2′:4,5]pyrazino[2,3-c]pyridazin-8-yl)piperidin-1-yl)propyl)-9H-pyrido[2,3-b]indol-9-yl)piperidine-2,6-dione] | – | < 10 | – | < 10 | 75 to 85 | > 85 |
| O=C1CCC(N2C(=O)c3ccc(N4CCC(N[C@H]5C[C@@H](CN6CCN7c8cc(-c9ccccc9O)nnc8NC[C@H]7C6)C5)CC4)cc3C2=O)C(=O)N1 (stereo partly drawn) [Example 76, 2-(2,6-dioxopiperidin-3-yl)-5-(4-(((1R,3s)-3-(((S)-2-(2-hydroxyphenyl)-5,6,6a,7,9,10-hexahydro-8H-pyrazino[1′,2′:4,5]pyrazino[2,3-c]pyridazin-8-yl)methyl)cyclobutyl)amino)piperidin-1-yl)isoindoline-1,3-dione] | – | < 10 | – | < 10 | > 85 | > 85 |
| O=C1CCC(N2C(=O)c3ccc(N4CC[C@H](CN5CCC(CN6CCN7c8cc(-c9ccccc9O)nnc8NC[C@H]7C6)CC5)[C@H](F)C4)cc3C2=O)C(=O)N1 (stereo partly drawn) [Example 185, 2-(2,6-dioxopiperidin-3-yl)-5-[(3S,4R)-3-fluoro-4-[[4-[[(10S)-4-(2-hydroxyphenyl)-1,5,6,8,12-pentazatricyclo[8.4.0.02,7]tetradeca-2(7),3,5-trien-12-yl]methyl]piperidin-1-yl]methyl]piperidin-1-yl]isoindole-1,3-dione] | – | < 10 | – | < 10 | 50 to 75 | 75 to 85 |
| O=C1CCC(N2C(=O)c3cccc(N4CCN(CCCN5CCC(N6CCN7c8cc(-c9ccccc9O)nnc8NC[C@H]7C6)CC5)CC4)c3C2=O)C(=O)N1 (stereo partly drawn) [Example 69, 2-(2,6-dioxopiperidin-3-yl)-4-(4-(3-(4-((S)-2-(2-hydroxyphenyl)-5,6,6a,7,9,10-hexahydro-8H-pyrazino[1′,2′:4,5]pyrazino[2,3-c]pyridazin-8-yl)piperidin-1-yl)propyl)piperazin-1-yl)isoindoline-1,3-dione] | – | < 10 | – | < 10 | > 85 | > 85 |
| O=C1CCC(N2C(=O)c3ccc(N4CC(CN5CCC(CN6CCN7c8cc(-c9ccccc9O)nnc8NC[C@H]7C6)CC5)C(F)(F)C4)cc3C2=O)C(=O)N1 (stereo partly drawn) [Example 191, 5-[3,3-difluoro-4-[[4-[[(10S)-4-(2-hydroxyphenyl)-1,5,6,8,12-pentazatricyclo[8.4.0.02,7]tetradeca-2(7),3,5-trien-12-yl]methyl]piperidin-1-yl]methyl]pyrrolidin-1-yl]-2-(2,6-dioxopiperidin-3-yl)isoindole-1,3-dione] | – | 10 to 100 | – | < 10 | 75 to 85 | 50 to 75 |
| O=C1CCC(N2Cc3ccc(N4CCC(CN5CCC(OC(=O)N6CCN7c8cc(-c9ccccc9O)nnc8NC[C@H]7C6)CC5)CC4)cc3C2=O)C(=O)N1 (stereo partly drawn) [Example 85, l-((l-(2-(2,6-dioxopiperidin-3-yl)-3-oxoisoindolin-5-yl)piperidin-4-yl)methyl)piperidin-4-yl (6aS)-2-(2-hydroxyphenyl)-5,6,6a,7,9,10-hexahydro-8H-pyrazino[1′,2′:4,5]pyrazino[2,3-c]pyridazine-8-carboxylate] | – | < 10 | – | < 10 | 75 to 85 | > 85 |
| O=C1CCC(N2C(=O)c3ccc(N4CCN(CCN5CCC(N6CCN7c8cc(-c9ccccc9O)nnc8NC[C@H]7C6)CC5)CC4)cc3C2=O)C(=O)N1 (stereo partly drawn) [Example 155, 2-(2,6-dioxopiperidin-3-yl)-5-(4-(2-(4-((S)-2-(2-hydroxyphenyl)-5,6,6a,7,9,10-hexahydro-8H-pyrazino[1′,2′:4,5]pyrazino[2,3-c]pyridazin-8-yl)piperidin-1-yl)ethyl)piperazin-1-yl)isoindoline-1,3-dione] | – | < 10 | – | < 10 | > 85 | > 85 |
| O=C1CCC(N2C(=O)c3ccc(N4CC(CN5C[C@@H]6[C@H](C5)[C@H]6CN5CCN6c7cc(-c8ccccc8O)nnc7NC[C@H]6C5)C4)cc3C2=O)C(=O)N1 (stereo partly drawn) [Example 109, 2-(2,6-dioxopiperidin-3-yl)-5-(3-(((1R,5S,6r)-6-(((S)-2-(2-hydroxyphenyl)-5,6,6a,7,9,10-hexahydro-8H-pyrazino[1′,2′:4,5]pyrazino[2,3-c]pyridazin-8-yl)methyl)-3-azabicyclo[3.1.0]hexan-3-yl)methyl)azetidin-1-yl)isoindoline-1,3-dione] | – | < 10 | – | < 10 | > 85 | > 85 |
